{"source": "patent US10227369B2", "about": "“Short-chain fatty acid hexosamine analogs and their use in tissue engineering applications” (THE JOHNS HOPKINS UNIVERSITY, priority 2013, dated 2019)", "format_in_all_cases": "cell-based, bovine", "key": {"[1]": {"system": "IL-1β-stimulated chondrocytes", "experiment": "IL-1β-stimulated chondrocytes in 3D PEGDA hydrogels: biochemical analysis (DNA, sGAG, collagen), histology, immunohistochemistry", "conditions": "10 ng/ml IL-1β; for DNA content of cell-laden hydrogels (cell viability): 21 days exposure, up to 150 μM", "experimental": "(§1) Cell Isolation and Culturing. Bovine chondrocytes were isolated from 4- to 8-week-old calves (Research 87, Inc., Boylston, Mass.), as previously described. Briefly, cartilage was dissected from the femoral patellar groove and condyles and minced into approximately 1 mm^2 pieces. Cells were isolated from the tissue by digesting overnight at 37° C. with 2 mg/ml type II collagenase (Worthington Biochemical Corp., Lakewood, N.J.), 5% fetal bovine serum (FBS), 100 U/ml penicillin and 100 μg/ml streptomycin on an orbital shaker. The cell suspension was passed through a 70 μm cell strainer, followed by centrifugation. Cells were washed 3 times using sterile phosphate buffered saline (PBS). Chondrocyte medium was composed of high glucose Dulbecco's Modified Eagle's Medium (DMEM) supplemented with 10 mM HEPES, 0.4 mM L-proline, 50 μg/ml ascorbic acid, 10% (v/v) fetal bovine serum (FBS; Hyclone Laboratories, Inc., Logan, Utah), 0.1 mM non-essential amino acids, 100 U/ml penicillin and 100 μg/ml streptomycin.\n(§2) Photoencapsulation in Poly(Ethylene Glycol)-Diacrylate (PEGDA) Hydrogels and Construct Culturing. For all 3D culture experiments, cells were photoencapsulated in PEGDA hydrogels, as previously described. Briefly, 100 mg PEGDA (3.4 kDa, SunBio, Anyang City, South Korea) was dissolved in 1 ml sterile PBS. A photoinitiator solution of Irgacure® 2959 (CIBA Specialty Chemicals) was prepared by dissolving 100 mg of Irgacure® 2959 in 1 ml 70% ethanol. Five microliters of the Irgacure® 2959 solution was added to 1 ml of PEGDA solution. Cells were suspended in the hydrogel precursor solution at a density of 20 million cells/ml and polymerized in sterile molds. A high cell density was chosen as it has been shown. Based on our previous studies a high cell density was chosen to best to support a cell phenotype and differentiation and cell phenotype. Polymerization was carried out using UV light (365 nm, 3.2 mW/cm^2) exposure for 5 minutes.\n(§3) For chondrocyte experiments, the cell-laden hydrogels were cultured in chondrocyte medium supplemented with 10 ng/ml IL-1β for 3 days. Following the initial 3 days, constructs were cultured with medium containing specific concentrations of hexosamine analog with 10 ng/ml IL-1β for an additional 21 days. The medium was changed 3 times per week.\n(§4) Biochemical Analysis. The constructs (n=3 for chondrocyte experiments and n=4 for chondrogenic experiments) were lyophilized for 48 hours and the dry weights measured. Constructs were then homogenized in 125 μg/ml papainase (Worthington Biochemical Corp., Lakewood, N.J.) and digested for 16 hours at 60° C. Quantification of DNA content was carried out using a Hoescht Dye 33342 DNA assay. Calf thymus DNA was used to generate standard curves. Quantification of sulfated glycosaminoglycans (sGAG), a molecule found in cartilage ECM, was carried out using a 1,9-dimethylmethylene blue (DMMB) dye assay; chondroitin sulfate was used to generate standard curves. Quantification of collagen was carried out via measuring hydroxyproline content after hydrolyzing in 6 N HCl overnight at 120° C. The reaction of hydroxyproline with chloramine-T and p-dimethylaminobenzaldehyde was performed as a measure of total collagen content; hydroxyproline was used to generate standard curves.\nHistology and Immunohistochemistry. Constructs were fixed in 10% formalin or 4% paraformaldehyde followed by dehydration in increasing concentrations of ethanol, embedded in paraffin and sliced into 5 μm sections. After paraffin removal and subsequent rehydration, sections were stained for proteoglycans using Safranin-O and fast green or prepared for immunohistochemistry. For immunohistochemical staining of type II collagen, endogenous peroxidase was quenched using 3% (v/v) hydrogen peroxide in methanol. Sections were then incubated at 37° C. with 2.5% (w/v) hyaluronidase and stained using a Histostain-SP Kit (AEC, Broad Spectrum) (Life Technologies, Grand Island, N.Y.) following the manufacturer's instructions. […]"}, "[2]": {"system": "IL-1β-stimulated chondrocytes", "experiment": "IL-1β-stimulated chondrocytes in 3D PEGDA hydrogels: real-time PCR gene expression", "conditions": "10 ng/ml IL-1β, 21 days", "experimental": "as §1, §2, §3\n(§5) RNA Isolation and Real-Time PCR. Total RNA was extracted using TRIzol® reagent (Life Technologies, Grand Island, N.Y.) following the manufacturer's protocol. cDNA was synthesized using Superscript® II reverse transcriptase (Life Technologies, Grand Island, N.Y.) following the manufacturer's protocol. Real-time PCR was carried out using a StepOnePlus™ Real-Time PCR System (Life Technologies, Grand Island, N.Y.). mRNA amounts for bovine primers were calculated using the ΔΔCt method. Relative mRNA quantities for goat primers were calculated using the Pfaffl method."}, "[3]": {"system": "IL-1β stimulated chondrocytes", "experiment": "Monolayer chondrocytes with IL-1β: real-time PCR of NFκB target genes", "conditions": "50 μM, 10 ng/ml IL-1β", "experimental": "as §1\nMonolayer cell culture. […]\nRNA Isolation and Real-Time PCR. […] Real-time PCR was carried out using a StepOnePlus™ Real-Time PCR System (Life Technologies, Grand Island, N.Y.). mRNA amounts for bovine primers were calculated using the ΔΔCt method. Relative mRNA quantities for goat primers were calculated using the Pfaffl method."}, "[4]": {"system": "unstimulated chondrocytes", "experiment": "Unstimulated (no IL-1β) chondrocytes in 3D PEGDA hydrogels: biochemical analysis and histology", "conditions": "for DNA content of cell-laden hydrogels (cell viability): 21 days exposure; for sGAG deposition / total collagen accumulation / type II collagen immunostaining: 21 days", "experimental": "as §1, §2, §4\nHistology and Immunohistochemistry. Constructs were fixed in 10% formalin or 4% paraformaldehyde followed by dehydration in increasing concentrations of ethanol, embedded in paraffin and sliced into 5 μm sections. After paraffin removal and subsequent rehydration, sections were stained for proteoglycans using Safranin-O and fast green or prepared for immunohistochemistry. For immunohistochemical staining of type II collagen, endogenous peroxidase was quenched using 3% (v/v) hydrogen peroxide in methanol. Sections were then incubated at 37° C. with 2.5% (w/v) hyaluronidase and stained using a Histostain-SP Kit (AEC, Broad Spectrum) (Life Technologies, Grand Island, N.Y.) following the manufacturer's instructions. Primary antibody for type II collagen (Fitzgerald Industries International, Acton, Mass.) was used at a dilution of 1:100 in 1% (w/v) BSA dissolved in PBS."}, "[5]": {"system": "unstimulated chondrocytes", "experiment": "Unstimulated (no IL-1β) chondrocytes in 3D PEGDA hydrogels: real-time PCR gene expression", "conditions": "21 days", "experimental": "as §1, §2, §5"}, "[6]": {"conditions": "concentrations similar to increased ECM accumulation"}, "[7]": {"conditions": "across the concentrations evaluated"}}, "note": "“Also recorded” adds a separate entry of the source."}
{"smiles": "CCCC(=O)OC[C@H]1OC(O)[C@@H](NC(C)=O)[C@@H](OC(=O)CCC)[C@@H]1OC(=O)CCC", "note": "(some centres unmarked) [ManNAc-a, 3,4,6-O-Bu3ManNAc]", "values": [{"measurement": "proteoglycan deposition (Safranin-O staining)", "setting": "[1]; 21 days, at 150 μM", "value": "further increase"}, {"measurement": "sGAG accumulation normalized to DNA", "setting": "[1]; 21 days, at 150 μM", "value": "further increase"}]}
{"smiles": "CCCC(=O)OC[C@H]1OC(O)[C@H](NC(C)=O)[C@@H](OC(=O)CCC)[C@@H]1OC(=O)CCC", "note": "(some centres unmarked) [GlcNAc-a, 3,4,6-O-Bu3GlcNAc]", "values": [{"measurement": "lowest concentration at which an increase in Safranin-O and type II collagen stains is observed", "setting": "[1]; 21 days", "value": 25, "unit": "µM"}, {"measurement": "DNA content of cell-laden hydrogels (cell viability)", "setting": "[1]", "value": "did not elicit a statistically significant difference"}, {"measurement": "type II collagen immunostaining, stain intensity versus no analog", "setting": "[1]; 21 days, 25 μM and 150 μM", "value": "slight increase in stain intensity"}, {"measurement": "change in sGAG deposition compared to no exposure", "setting": "[1]; 21 days, 50 μM", "value": "almost doubling"}, {"measurement": "increase in collagen accumulation compared to no exposure", "setting": "[1]; 21 days, 50 μM and 100 μM", "value": "almost doubling"}, {"measurement": "total collagen accumulation normalized to DNA", "setting": "[1]; 21 days, 50 μM and 100 μM", "value": "significant increase"}, {"measurement": "type II collagen immunostaining", "setting": "[1]; 21 days, 50 μM and 100 μM", "value": "increase in type II collagen immunostaining"}, {"measurement": "sGAG accumulation normalized to DNA", "setting": "[1]; 21 days, at 150 μM", "value": "decreased"}, {"measurement": "sGAG accumulation normalized to DNA", "setting": "[1]; 21 days, concentrations up to 100 μM, versus no analog", "value": "increase in sGAG accumulation"}, {"measurement": "IκBα gene expression", "setting": "[2]", "value": "decreased"}, {"measurement": "MMP13, NFκB1 and IκBα expression levels relative to unstimulated chondrocytes", "setting": "[2]", "value": "near to that of unstimulated"}, {"measurement": "NFKB1 gene expression", "setting": "[2]", "value": "decreased"}, {"measurement": "aggrecan, type II collagen and type I collagen expression relative to unstimulated chondrocytes", "setting": "[2]", "value": "approached expression levels found in unstimulated chondrocytes"}, {"measurement": "MMP13 gene expression", "setting": "[2]; 150 μM", "value": "further decrease"}, {"measurement": "aggrecan gene expression", "setting": "[2]; [6]", "value": "increased"}, {"measurement": "type II collagen gene expression", "setting": "[2]; [6]", "value": "increased"}, {"measurement": "MMP13 gene expression", "setting": "[2]; higher concentrations (through 100 μM)", "value": "decrease"}, {"measurement": "type I collagen gene expression", "setting": "[2]; intermediate concentrations", "value": "increased"}, {"measurement": "MMP13 gene expression", "setting": "[2]; low concentrations / lowest dose", "value": "initial increase"}, {"measurement": "expression levels of IL-1β, IκBα and iNOS", "setting": "[3]; 4 hours exposure", "value": "able to alter expression levels of some of the genes"}, {"measurement": "expression levels of NFκB target genes (IL-1β, MMP13, ADAMTS4, ADAMTS5, iNOS, PGES, NFκB1, IκBα)", "setting": "[3]; 24 hours exposure, MMP9 is the exception", "value": "decreased the expression levels of all genes evaluated"}, {"measurement": "DNA content of cell-laden hydrogels (cell viability)", "setting": "[4]", "value": "did not elicit a statistically significant difference"}, {"measurement": "sGAG deposition", "setting": "[4]; 150 μM", "value": "a decrease was observed"}, {"measurement": "total collagen accumulation", "setting": "[4]; above 50 μM", "value": "concentration dependent decrease"}, {"measurement": "type II collagen immunostaining", "setting": "[4]; above 50 μM", "value": "dose-dependent decrease"}, {"measurement": "sGAG deposition", "setting": "[4]; below 150 μM", "value": "did not have an effect"}, {"measurement": "total collagen accumulation", "setting": "[4]; through 50 μM", "value": "maintained collagen accumulation"}, {"measurement": "type II collagen immunostaining", "setting": "[4]; through 50 μM", "value": "no differences"}, {"measurement": "type I collagen gene expression", "setting": "[5]", "value": "concentration-dependent decrease"}, {"measurement": "MMP13 gene expression", "setting": "[5]; after lowest dose through 100 μM", "value": "decrease"}, {"measurement": "IκBα and NFκB1 gene expression", "setting": "[5]; except the highest concentrations", "value": "Neither of these genes changed"}, {"measurement": "IκBα and NFκB1 gene expression", "setting": "[5]; highest concentrations studied", "value": "an increase was observed"}, {"measurement": "MMP13 gene expression", "setting": "[5]; lowest dose", "value": "initial increase"}]}
{"smiles": "CCCC(=O)OC1OC(CO)[C@@H](OC(=O)CCC)[C@H](OC(=O)CCC)C1NC(C)=O", "note": "(some centres unmarked) [1,3,4-O-Bu3GlcNAc, reference compound]", "values": [{"measurement": "DNA content of cell-laden hydrogels (cell viability)", "setting": "[1]", "value": "no statistical differences"}, {"measurement": "sGAG accumulation normalized to DNA", "setting": "[1]; 21 days, across the concentrations evaluated", "value": "did not alter; also recorded: no statistical differences"}, {"measurement": "total collagen deposition normalized to DNA", "setting": "[1]; [7]", "value": "did not alter; also recorded: no statistical differences"}, {"measurement": "DNA content of cell-laden hydrogels (cell viability)", "setting": "[4]", "value": "no statistical differences"}, {"measurement": "sGAG deposition normalized to DNA", "setting": "[4]; [7]", "value": "did not alter; also recorded: no statistical differences"}, {"measurement": "total collagen deposition normalized to DNA", "setting": "[4]; [7]", "value": "did not alter; also recorded: no statistical differences"}]}
